Here are results for 1 substance from patent US10017556B2, “Insulin receptor partial agonists” (MERCK SHARP & DOHME CORP., priority 2014, dated 2018).

The subject of this experiment is lean C57BL/6NTac mice. The experiment is described as follows: Intraperitoneal Insulin Tolerance Test (IP-ITT). The format is in vivo. To be noted: intraperitoneal injection, two doses per compound (Table 16), blood glucose 30 to 360 min after dose.

Experimental: Groups of N=6-8 animals per group were randomized by weight (average about 30 grams). Two days prior to study, the mice were conditioned to dosing with an intraperitoneal injection of 0.9% Sodium Chloride solution at 5 ml/kg dosing volume. On the morning of the study, food was removed two or four hours prior to the study. Blood glucose concentrations were determined at T=0 min (baseline) using a Glucometer. […] Blood glucose levels were determined from tail bleeds taken between 30 to 360 minutes after dose.

“B29,B29′-suberoyl-(insulin)2 [Compound B, reference compound]”: the “glucose profile at low versus high dose in IP-ITT” value is “increasing the dosage of compounds A and B caused an increased glucose lowering potency”.
